The text below walks through data of patent US10745399B2 (priority 2015, dated 2020).

Read-outs that look alike come from different tables or passages of the source.

One experiment addresses human recombinant ATM (Homo sapiens (Human), UniProt Q13315). The experiment can be described thus: ATM kinase assay (IC50 ATM), TR-FRET. It is filed as biochemical. The method, then:
ATM Kinase Assay—Determination of ATM Inhibition (IC50 ATM):
The IC50 value was determined with the aid of a biochemical ATM kinase assay. The assay consists of two steps: the enzymatic reaction and the detection step. Firstly, ATM (ataxia telangiectasia mutated) protein and the test substance are incubated at different concentrations with addition of substrate protein p53 and ATP. ATM mediates the phosphorylation of p53 at several positions, including at amino acid S15. The amount of phosphorylated p53 is determined with the aid of specific antibodies and the TR-FRET technique. The enzymatic ATM assay is carried out as TR-FRET (HTRF™, Cisbio Bioassays) based 384-well assay. In the first step, purified human recombinant ATM (human ATM, full length, GenBank ID NM_000051, expressed in a mammal cell line) is incubated in assay buffer for 15 minutes with the ATM inhibitor in various concentrations and without test substance as negative or neutral control. The assay buffer comprises 25 mM HEPES pH 8.0, 10 mM Mg(CH3COO)2, 1 mM MnCl2, 0.1% BSA and 0.01% Brij® 35, 5 mM dithiothreitol (DTT). […] In the second step, purified human recombinant cmyc-labelled p53 (human p53, full length, GenBank ID BC003596, expressed in Sf21 insect cells) and ATP are added, and the reaction mixture is incubated at 22° C. for 30-35 minutes. The pharmacologically relevant assay volume is 5 μl. […] The enzymatic reaction is stopped by addition of EDTA. […] After incubation, usually for 2 hours (between 1.5 and 15 h), for signal development, the plates are analysed in a plate reader (EnVision, PerkinElmer) using TRF mode (and with laser excitation). […] The measurement data were processed by means of Genedata Screener software. IC50 determinations are carried out, in particular, by fitting a dose/action curve to the data points by means of nonlinear regression analysis.
For orientation: TR-FRET usually uses a lanthanide donor and a delayed reading to cut background.

Experiment [1] has as its system CHK2 phosphorylation (phospho-Thr68) in HCT116 cells. The experiment can be described thus: Cellular pCHK2 assay, bleomycin-induced phosphorylation of CHK2 (phospho-Thr68), immunofluorescence high content. Format: cell-based. The conditions noted are these: Homo sapiens, read-out: IC50 (pCHK2).
For a further experiment, the target named is mTOR (human) (Homo sapiens (Human), UniProt P42345). The experiment can be described thus: mTOR (human) radiometric kinase assay. It is filed as biochemical. The method, then:
mTOR (human) was incubated with 50 mM HEPES pH 7.5, 1 mM EGTA, 0.01% Tween 20, 2 mg/ml of the substrate, 3 mM MnCl2 and [γ-^33P-ATP] (specific activity approximately 500 cpm/pmol, concentration as necessary). The reaction was initiated by addition of MgATP solution. After incubation at room temperature for 40 minutes, the reaction was stopped by addition of 3% phosphoric acid. 10 μl of the reaction solution were then transferred dropwise onto a P30 filtermat and washed three times for 5 min in 75 mM phosphoric acid and once in methanol, dried and evaluated by means of liquid scintillation counting.

The next experiment concerns the target PI3K p110α/p85α (human) (Homo sapiens (Human), UniProt P42336). The experiment can be described thus: PI3K p110α/p85α (human), non-radioactive assay (HTRF). It is filed as biochemical. The conditions noted are these: read-out: IC50 (PI3Kalpha). The procedure: The reaction was initiated by addition of MgATP solution. After incubation at room temperature for 40 minutes, the reaction was stopped by addition of a solution consisting of EDTA and biotinylated phosphatidylinositol 3,4,5-trisphosphate. Finally, the detection buffer, consisting of a europium-labelled anti-GST monoclonal antibody, a GST-labelled GRP1 PH domain and streptavidin allophycocyanin, was added. The plate was read out via homogeneous time-resolved fluorescence (HTRF) and the corresponding signals were evaluated via the formula HTRF=10000×(Em665 nm/Em620 nm).

The target in another experiment is PI3K p110β/p85α (human) (Homo sapiens (Human), UniProt P42338). The experiment can be described thus: PI3K p110β/p85α (human), non-radioactive assay (HTRF). It is filed as biochemical. The method, then: PI3K p110β/p85a (Human), Non-Radioactive Assay
PI3K p110β/p85α (human) was incubated in an assay buffer comprising 10 μM phosphatidylinositol 4,5-bisphosphate and MgATP (concentration as necessary). The reaction was initiated by addition of MgATP solution. After an incubation time of 30 min at room temperature, the reaction was stopped by addition of a solution consisting of EDTA and biotinylated phosphatidylinositol 3,4,5-trisphosphate. Finally, the detection buffer, consisting of a europium-labelled anti-GST monoclonal antibody, a GST-labelled GRP1 PH domain and streptavidin allophycocyanin, was added. The plate was read out via homogeneous time-resolved fluorescence (HTRF) and the corresponding signals were evaluated via the formula HTRF=10000×(Em665 nm/Em620 nm).

Another experiment addresses PI3K p110δ/p85α (human) (Homo sapiens (Human), UniProt O00329). Description: PI3K p110δ/p85α (human), non-radioactive assay (HTRF). The conditions noted are these: read-out: IC50 (PI3Kdelta). It is filed as biochemical. The procedure:
The reaction was initiated by addition of MgATP solution. After an incubation time of 30 min at room temperature, the reaction was stopped by addition of a solution consisting of EDTA and biotinylated phosphatidylinositol 3,4,5-trisphosphate. Finally, the detection buffer, consisting of a europium-labelled anti-GST monoclonal antibody, a GST-labelled GRP1 PH domain and streptavidin allophycocyanin, was added. The plate was read out via homogeneous time-resolved fluorescence (HTRF) and the corresponding signals were evaluated via the formula HTRF=10000×(Em665 nm/Em620 nm).

In another experiment the target is PI3K (p120γ) (human) (Homo sapiens (Human), UniProt P48736). Description: PI3K (p120γ) (human), non-radioactive assay (HTRF). The conditions noted are these: read-out: IC50 (PI3Kgamma). It is filed as biochemical. The procedure: The reaction was initiated by addition of MgATP solution. After an incubation time of 30 min at room temperature, the reaction was stopped by addition of a solution consisting of EDTA and biotinylated phosphatidylinositol 3,4,5-trisphosphate. Finally, the detection buffer, consisting of a europium-labelled anti-GST monoclonal antibody, a GST-labelled GRP1 PH domain and streptavidin allophycocyanin, was added.

Chain of PI3K p110β/p85α (human) (P42338 whole entry, the tested form may be a part): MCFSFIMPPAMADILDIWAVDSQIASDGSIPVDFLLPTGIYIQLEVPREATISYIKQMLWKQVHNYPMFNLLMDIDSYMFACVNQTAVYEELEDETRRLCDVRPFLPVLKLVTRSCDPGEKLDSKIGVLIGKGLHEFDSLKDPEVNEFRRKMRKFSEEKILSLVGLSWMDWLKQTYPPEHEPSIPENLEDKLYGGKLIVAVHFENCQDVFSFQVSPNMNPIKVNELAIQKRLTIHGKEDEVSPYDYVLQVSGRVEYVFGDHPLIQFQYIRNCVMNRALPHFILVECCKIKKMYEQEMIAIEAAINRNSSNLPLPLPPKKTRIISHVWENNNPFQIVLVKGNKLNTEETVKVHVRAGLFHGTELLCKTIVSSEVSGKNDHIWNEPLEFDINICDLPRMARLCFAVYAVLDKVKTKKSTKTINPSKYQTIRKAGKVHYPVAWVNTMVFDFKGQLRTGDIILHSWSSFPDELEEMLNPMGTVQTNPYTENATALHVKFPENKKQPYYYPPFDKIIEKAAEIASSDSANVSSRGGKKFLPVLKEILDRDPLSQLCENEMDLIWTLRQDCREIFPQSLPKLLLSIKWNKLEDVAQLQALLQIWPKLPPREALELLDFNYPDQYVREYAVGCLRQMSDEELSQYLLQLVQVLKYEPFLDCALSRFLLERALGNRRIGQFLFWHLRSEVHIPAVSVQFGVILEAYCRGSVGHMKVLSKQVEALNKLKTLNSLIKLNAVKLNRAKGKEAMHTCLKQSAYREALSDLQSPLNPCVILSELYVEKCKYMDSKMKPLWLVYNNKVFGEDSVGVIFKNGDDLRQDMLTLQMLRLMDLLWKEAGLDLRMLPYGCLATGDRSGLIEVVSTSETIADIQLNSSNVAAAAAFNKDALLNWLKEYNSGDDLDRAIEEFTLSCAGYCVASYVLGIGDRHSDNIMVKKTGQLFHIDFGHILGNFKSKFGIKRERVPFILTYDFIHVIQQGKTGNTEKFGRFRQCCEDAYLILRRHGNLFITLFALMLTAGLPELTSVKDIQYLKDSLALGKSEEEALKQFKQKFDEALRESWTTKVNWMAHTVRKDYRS
Chain of PI3K p110β/p85α (human) (P27986 whole entry partner, the tested form may be a part): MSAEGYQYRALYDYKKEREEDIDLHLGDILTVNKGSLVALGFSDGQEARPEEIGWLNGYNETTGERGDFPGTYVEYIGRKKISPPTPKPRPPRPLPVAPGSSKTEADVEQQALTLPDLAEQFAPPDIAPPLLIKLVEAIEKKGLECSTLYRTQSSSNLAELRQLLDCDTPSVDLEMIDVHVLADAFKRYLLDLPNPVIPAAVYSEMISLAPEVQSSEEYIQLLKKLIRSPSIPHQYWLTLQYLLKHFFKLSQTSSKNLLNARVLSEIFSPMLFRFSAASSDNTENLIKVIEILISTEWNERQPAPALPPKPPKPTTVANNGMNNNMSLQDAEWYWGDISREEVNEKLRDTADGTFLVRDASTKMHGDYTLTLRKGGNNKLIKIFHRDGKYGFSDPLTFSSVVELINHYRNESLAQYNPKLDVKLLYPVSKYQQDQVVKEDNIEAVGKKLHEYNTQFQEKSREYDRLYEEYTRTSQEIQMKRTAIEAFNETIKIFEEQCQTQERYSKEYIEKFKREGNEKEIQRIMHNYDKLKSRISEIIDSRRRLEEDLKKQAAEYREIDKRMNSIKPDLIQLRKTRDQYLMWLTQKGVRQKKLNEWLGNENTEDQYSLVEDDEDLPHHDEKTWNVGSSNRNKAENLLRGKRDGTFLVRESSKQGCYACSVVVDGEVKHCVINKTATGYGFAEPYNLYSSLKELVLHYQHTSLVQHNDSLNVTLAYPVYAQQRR
Chain of human recombinant ATM (Q13315 whole entry): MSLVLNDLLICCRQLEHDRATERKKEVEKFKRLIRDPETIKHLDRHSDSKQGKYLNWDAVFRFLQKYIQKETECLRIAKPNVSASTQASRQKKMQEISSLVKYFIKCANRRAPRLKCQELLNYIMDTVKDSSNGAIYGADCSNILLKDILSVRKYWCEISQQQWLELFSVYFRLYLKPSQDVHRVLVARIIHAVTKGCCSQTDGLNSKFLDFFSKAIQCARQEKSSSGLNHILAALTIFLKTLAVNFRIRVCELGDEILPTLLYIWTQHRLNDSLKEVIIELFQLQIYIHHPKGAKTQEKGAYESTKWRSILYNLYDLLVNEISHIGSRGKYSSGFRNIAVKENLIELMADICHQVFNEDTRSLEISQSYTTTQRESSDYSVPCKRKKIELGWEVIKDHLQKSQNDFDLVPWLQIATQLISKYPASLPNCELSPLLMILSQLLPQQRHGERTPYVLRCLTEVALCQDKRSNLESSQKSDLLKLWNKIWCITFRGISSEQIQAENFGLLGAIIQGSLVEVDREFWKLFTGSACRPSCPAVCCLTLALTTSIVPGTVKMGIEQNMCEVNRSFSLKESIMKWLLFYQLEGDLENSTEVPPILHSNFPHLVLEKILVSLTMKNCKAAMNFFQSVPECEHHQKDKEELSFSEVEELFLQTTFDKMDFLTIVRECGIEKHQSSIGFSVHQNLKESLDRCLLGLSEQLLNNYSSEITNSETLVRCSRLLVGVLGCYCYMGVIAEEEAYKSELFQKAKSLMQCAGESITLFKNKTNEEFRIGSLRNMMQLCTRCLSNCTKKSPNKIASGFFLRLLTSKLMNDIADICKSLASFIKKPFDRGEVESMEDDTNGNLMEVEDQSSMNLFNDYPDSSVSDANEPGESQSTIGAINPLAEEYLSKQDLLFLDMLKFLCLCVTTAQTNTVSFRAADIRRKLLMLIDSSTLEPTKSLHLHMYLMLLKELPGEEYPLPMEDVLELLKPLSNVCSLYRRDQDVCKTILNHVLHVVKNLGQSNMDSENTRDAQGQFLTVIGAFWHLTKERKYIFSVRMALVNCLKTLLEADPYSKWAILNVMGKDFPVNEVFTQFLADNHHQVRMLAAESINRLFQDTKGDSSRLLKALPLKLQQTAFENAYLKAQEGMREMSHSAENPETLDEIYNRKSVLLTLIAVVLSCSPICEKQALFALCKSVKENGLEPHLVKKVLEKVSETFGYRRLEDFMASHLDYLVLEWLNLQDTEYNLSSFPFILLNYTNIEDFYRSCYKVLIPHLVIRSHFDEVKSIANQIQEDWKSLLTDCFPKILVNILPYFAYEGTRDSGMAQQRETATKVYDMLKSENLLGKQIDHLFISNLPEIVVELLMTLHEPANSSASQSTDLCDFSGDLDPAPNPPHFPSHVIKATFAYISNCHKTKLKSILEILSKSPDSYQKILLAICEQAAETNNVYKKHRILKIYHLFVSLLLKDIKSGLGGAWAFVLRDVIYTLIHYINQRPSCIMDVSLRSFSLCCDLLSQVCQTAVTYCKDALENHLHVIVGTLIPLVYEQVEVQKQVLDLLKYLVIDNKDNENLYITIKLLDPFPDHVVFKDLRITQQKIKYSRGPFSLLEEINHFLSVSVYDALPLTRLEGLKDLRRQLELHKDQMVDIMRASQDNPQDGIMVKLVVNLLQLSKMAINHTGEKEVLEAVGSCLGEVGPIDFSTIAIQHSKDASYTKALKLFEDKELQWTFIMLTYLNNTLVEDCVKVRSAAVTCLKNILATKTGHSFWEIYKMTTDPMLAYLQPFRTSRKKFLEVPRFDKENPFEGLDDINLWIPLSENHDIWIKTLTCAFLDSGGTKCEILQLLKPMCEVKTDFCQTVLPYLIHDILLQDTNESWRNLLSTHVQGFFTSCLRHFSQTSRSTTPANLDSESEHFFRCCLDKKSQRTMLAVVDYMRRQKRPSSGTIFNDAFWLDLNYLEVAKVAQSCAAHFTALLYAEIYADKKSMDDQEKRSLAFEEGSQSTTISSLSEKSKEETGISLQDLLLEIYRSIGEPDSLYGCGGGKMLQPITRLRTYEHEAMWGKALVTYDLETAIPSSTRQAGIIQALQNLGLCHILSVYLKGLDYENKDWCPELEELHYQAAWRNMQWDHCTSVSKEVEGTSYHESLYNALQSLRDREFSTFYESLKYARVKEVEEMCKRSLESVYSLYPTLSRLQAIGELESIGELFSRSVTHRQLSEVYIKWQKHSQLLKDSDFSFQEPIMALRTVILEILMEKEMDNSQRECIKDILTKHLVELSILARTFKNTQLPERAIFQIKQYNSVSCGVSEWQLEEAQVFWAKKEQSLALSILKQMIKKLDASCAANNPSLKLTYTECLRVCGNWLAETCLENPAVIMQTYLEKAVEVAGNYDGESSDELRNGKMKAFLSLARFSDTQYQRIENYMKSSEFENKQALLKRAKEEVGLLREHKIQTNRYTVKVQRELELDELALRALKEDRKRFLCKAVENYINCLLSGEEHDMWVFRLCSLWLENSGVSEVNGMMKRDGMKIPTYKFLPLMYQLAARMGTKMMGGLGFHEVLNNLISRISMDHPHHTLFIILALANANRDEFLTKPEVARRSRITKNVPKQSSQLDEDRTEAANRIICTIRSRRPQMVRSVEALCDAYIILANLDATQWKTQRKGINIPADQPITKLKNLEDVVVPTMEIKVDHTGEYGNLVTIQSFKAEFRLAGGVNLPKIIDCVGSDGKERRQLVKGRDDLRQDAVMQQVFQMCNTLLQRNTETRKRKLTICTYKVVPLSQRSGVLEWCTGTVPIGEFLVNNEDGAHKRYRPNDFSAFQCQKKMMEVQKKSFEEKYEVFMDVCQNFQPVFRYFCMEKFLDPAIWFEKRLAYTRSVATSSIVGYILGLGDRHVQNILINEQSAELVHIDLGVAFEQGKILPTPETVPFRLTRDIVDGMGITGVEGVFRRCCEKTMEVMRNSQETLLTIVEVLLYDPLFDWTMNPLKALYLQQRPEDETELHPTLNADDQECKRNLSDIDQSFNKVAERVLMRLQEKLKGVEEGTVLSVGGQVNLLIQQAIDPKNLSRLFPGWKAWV

Turning to `CCn1cc(-c2cc3c(cc2OC)ncc2c3n(-c3c(F)cncc3OC)c(=O)n2C)cn1` [Example 13], the IC50 was less than 1 nM at human recombinant ATM; less than 1 nM at human recombinant ATM (10 μM ATP, p53 substrate); less than 200 nM in experiment [1] (HCT-116, 4 h); more than 10000 nM at mTOR (human); more than 5000 nM at PI3K p110α/p85α (human); more than 30000 nM on PI3K p110β/p85α (human) (read-out: IC50 (PI3Kbeta)). Besides, the IC50 on PI3K p110δ/p85α (human) was more than 10000 nM; on PI3K (p120γ) (human) it was more than 30000 nM.
For the molecule `COc1ccc(-c2cc3c(cc2OC)ncc2c3n(-c3c(F)cncc3OC)c(=O)n2C)cn1` [compound 137, 1-(3-Fluoro-5-methoxy-pyridin-4-yl)-7-methoxy-8-(6-methoxypyridin-3-yl)-3-methyl-1,3-dihydroimidazo-[4,5-c]quinolin-2-one], the IC50 in experiment [1] (HCT-116, HCT116 cells, 10 μM bleomycin, 4 h) is 200 to 1000 nM. For the same molecule, the “ratio IC50 (ATM):IC50(PI3Kbeta), selectivity with respect to PI3Kbeta” value at PI3K p110β/p85α (human) (IC50 (ATM) at least 2000 times higher compared with IC50 (PI3Kbeta)) is on record as “at least 2000 times”.
